Measurements as given in article PMC2196011 (The Journal of Experimental Medicine, 2002).

Target: T1, GST-PfNSMase (PfNSM product; plasmodial SM/LCPL-PLC) (Plasmodium falciparum, UniProt Q8WSF5)
T1 sequence (Q8WSF5 1-393): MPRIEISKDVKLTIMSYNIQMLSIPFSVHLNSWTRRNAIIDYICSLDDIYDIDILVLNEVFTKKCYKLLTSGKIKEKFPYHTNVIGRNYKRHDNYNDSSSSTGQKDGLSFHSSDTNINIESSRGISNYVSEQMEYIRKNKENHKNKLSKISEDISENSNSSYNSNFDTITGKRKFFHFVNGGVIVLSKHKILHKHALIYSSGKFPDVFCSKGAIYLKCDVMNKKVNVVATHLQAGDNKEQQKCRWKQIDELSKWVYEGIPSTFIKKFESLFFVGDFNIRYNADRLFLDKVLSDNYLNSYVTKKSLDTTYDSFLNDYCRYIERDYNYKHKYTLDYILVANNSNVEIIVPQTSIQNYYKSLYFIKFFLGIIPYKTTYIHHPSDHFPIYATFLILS
Assay: competition of […]lysoPtdCho hydrolysis, E. coli membrane fraction
Type: biochemical
Conditions: 10 μM [palmitoyl-1-14C]lysoPtdCho; detergent-free; 10 mM MgCl2; pH 7.5; 37°C

CCCCCCCCCCCCCCCCOC[C@@H](O)COP(=O)([O-])OCC[N+](C)(C)C [lysoPAF]
% of control activity: The activity was moderately competed by PAF and lysoPAF

CCCCCCCCCCCCC/C=C/[C@@H](O)[C@@H](N)COP(=O)([O-])OCC[N+](C)(C)C [sphingosylphosphocholine]
% of control activity: lysoPtdCho was strongly competed by sphingosylphosphocholine
